Biological target: one or more of HDAC4, HDAC5, HDAC6, HDAC7, HDAC8, HDAC9 and HDAC11
Assay: Inhibition of histone deacetylase enzymatic activity (fluorogenic Boc-Lys(Ac)-AMC / Boc-Lys(trifluoroacetyl)-AMC substrate)
Type: biochemical
Conditions: against one or more of HDAC4, HDAC5, HDAC6, HDAC7, HDAC8, HDAC9 and HDAC11
Experimental: Inhibition of HDAC-1,2,3,6 and 8
The following protocol is used to assay the compounds of the invention. In the assay, the buffer used is 25 mM HEPES, pH 8.0, 137 mM NaCl, 2.7 mM KCl, 1 mM MgCl2 and the substrate is Boc-Lys(Ac)-AMC in a 50 mM stock solution in DMSO. The enzyme stock solution is 4.08 μg/mL in buffer.
The compounds are pre-incubated (2 μl, in DMSO diluted to […] in buffer for transfer to assay plate) with enzyme (20 μL of 4.08 μg/mL) for 10 minutes at room temperature (35 μL pre-incubation volume). The mixture is pre-incubated for 5 minutes at room temperature. The reaction is started by bringing the temperature to 37° C. and adding 15 μL substrate. Total reaction volume is 50 μL. The reaction is stopped after 20 minutes by addition of 50 μL developer, prepared as directed by Biomol (FLUOR DE LYS™ developer, Cat. # KI-105). A plate is incubated in the dark for 10 minutes at room temperature before reading (λEx=360 nm, λEm=470 nm, Cutoff filter at 435 nm).
Inhibition of Class II HDAC and HDAC-11
A 30 mM stock of Boc-Lys(trifluoroacetyl)-AMC substrate is prepared in DMSO. 2 μL test compound in DMSO is diluted to 50 μL in buffer (25 mM HEPES, pH 8.0, 137 mM NaCl, 2.7 mM KCl, 1 mM MgCl2, 0.1% BSA) and pre-incubated with HDAC enzyme (30 μL of a final enzyme concentration of 0.1-0.2 nM) for 10 minutes at room temperature. Reaction is started by adding 18 μL Boc-Lys(trifluoroacetyl)-AMC substrate and incubating at 37° C. for 20-30 minutes. The reaction is stopped by adding 50 μL trypsin (1 mg/mL) and a known HDAC inhibitor. The plate is then incubated in the dark for 20 minutes at room temperature and read with Ex=360 nm, Em=470 nm, cutoff filter at 435 nm.

Compound | IC50 [nM]
O=C(NO)c1sc(C2CCN(CCc3c[nH]c4ccccc34)CC2)nc1-c1ccccc1 [Compound 152, 2-(1-(2-(1H-indol-3-yl)ethyl)piperidin-4-yl)-N-hydroxy-4-phenylthiazole-5-carboxamide] | < 250
O=C(NO)c1sc(-c2ccccn2)nc1-c1ccccc1 [Compound 153, N-hydroxy-4-phenyl-2-(pyridin-2-yl)thiazole-5-carboxamide] | 250 to 500
COc1ccc(S(=O)(=O)Nc2ccc3sc(C(=O)NO)c(-c4ccccc4)c3c2)cc1 [Compound 154, N-hydroxy-5-(4-methoxyphenyl-sulfonamido)-3-phenylbenzo[b] thiophene-2-carboxamide] | 500 to 750
O=C(Cc1ccc(C(F)(F)F)cc1)Nc1ccc(C(=O)NO)c(-c2ccccc2)c1 [Compound 155, N-hydroxy-5-(2-(4-(trifluoromethyl)phenyl)acetamido) biphenyl-2-carboxamide] | < 250
O=C(NO)c1sc2ccc(NS(=O)(=O)Cc3ccccc3)cc2c1-c1ccccc1 [Compound 157, N-hydroxy-3-phenyl-5-(phenylmethyl-sulfonamido) benzo[b]thiophene-2-carboxamide] | < 250
CC(=O)Nc1ccc(S(=O)(=O)N2CCC(c3nc(-c4ccccc4)c(C(=O)NO)s3)CC2)cc1 [Compound 158, 2-(1-(4-acetamidophenyl-sulfonyl)piperidin-4-yl)-N-hydroxy-4-phenylthiazole-5-carboxamide] | < 250

Continued, values first:

IC50 [nM] | Compound
250 to 500 | O=C(NO)c1sc2ccc(NS(=O)(=O)c3cccs3)cc2c1-c1ccccc1 [Compound 160]
< 250 | O=C(NO)c1ccc(CN2C(=O)c3ccccc3Oc3ccccc32)cc1-c1ccccc1 [Compound 162, N-hydroxy-5-((11-oxodibenzo[b,f] [1,4]oxazepin-10(11H)-yl)methyl)biphenyl-2-carboxamide]
< 250 | O=C(NCc1ccccc1)OCc1cc(-c2ccccc2)c(C(=O)NO)s1 [Compound 180, (5-(hydroxycarbamoyl)-4-phenylthiophen-2-yl)methyl benzylcarbamate]
< 250 | CN(Cc1ccccc1)C(=O)OCc1cc(-c2ccccc2)c(C(=O)NO)s1 [Compound 181, (5-(hydroxycarbamoyl)-4-phenylthiophen-2-yl)methyl benzyl(methyl)carbamate]
< 250 | CN(Cc1ccccc1)Cc1cc(-c2ccccc2)c(C(=O)NO)s1 [Compound 182, 5-((benzyl(methyl)amino)methyl)-N-hydroxy-3-phenylthiophene-2-carboxamide]
< 250 | O=C(NO)c1sc(-c2ccc3c(c2)OCO3)nc1-c1ccccc1 [compound 81]
500 to 750 | O=C(Nc1ccccc1Oc1ccccc1)c1ccc(C(=O)NO)c(-c2ccccc2)c1 [compound 105]
